Source: patent publication US11472814B2, “Thienopyranones and furanopyranones as checkpoint inhibitors and modulators of anti-tumor immunity” (SignalRx Pharmaceuticals, Inc., priority 2017, dated 2022)
“Also recorded” adds a separate entry of the source.

Legend:
MC38 tumors = test: MC38 tumor growth in immunocompetent murine model; type: in vivo; conditions: vs vehicle
Description: We investigated the effect of Compound 3 on immune cell in vitro and on tumor growth in in vivo in immunocompetent syngeneic tumor models and the effects on the macrophage and T cell immune compartment in vivo by this compound. […] In order to distinguish whether Compound 3 blocks tumor growth due to its effect on immune cell compartment and not on tumor compartment, we tested the effect of this chemotype on CT26 tumor growth in immunodeficient NSG mice vs immunocompetent Balb/c mice. […] Compound 3 has combinatorial immune-oncologic activity in vivo to stimulate anti-cancer innate and adaptive immunity in well-defined accepted immune competent murine models for cancer immunotherapy.
In contrast to above data, Compound 3 has a marked significant inhibitory effect on CT26, LLC and MC38 tumor growth in immunocompetent murine models. Conclusion: this establishes effect of Compound 3 as immune-oncologically active agent in cancer immunotherapy. In immunocompetent mice with same tumor cell inoculum Compound 3 inhibited tumor growth by from 58-68%. p<0.001 in all experiments compared to vehicle control.

[1] = test system: LLC tumors, Ifng and Gzmb mRNA; test: mRNA expression of Ifng and Gzmb in LLC tumors; type: in vivo, mice; conditions: normalized to GAPDH
Experimental: Effect of Compound 3 treatment in vivo at 10 mg/kg dose on mRNA expression of interferon (Ifng) gamma and granzyme b (Gzmb) in LLC tumors implanted in vehicle vs Compound 3 treated mice (n=3, biological replicates, p<0.05, t test). Relative gene expression is normalized to a house keeping gene, GAPDH for comparison.

PI3K α = target: T1, PI3K α (Homo sapiens, UniProt P42336); test: PI3K alpha inhibition IC50 (Thermo Fisher); type: biochemical; conditions: 10-point curve
T1 construct: purchased Thermo Fisher Scientific-Biosciences Life Sciences Solutions, Madison, Wis; (contract assay service)
T1 sequence (P42336 whole entry): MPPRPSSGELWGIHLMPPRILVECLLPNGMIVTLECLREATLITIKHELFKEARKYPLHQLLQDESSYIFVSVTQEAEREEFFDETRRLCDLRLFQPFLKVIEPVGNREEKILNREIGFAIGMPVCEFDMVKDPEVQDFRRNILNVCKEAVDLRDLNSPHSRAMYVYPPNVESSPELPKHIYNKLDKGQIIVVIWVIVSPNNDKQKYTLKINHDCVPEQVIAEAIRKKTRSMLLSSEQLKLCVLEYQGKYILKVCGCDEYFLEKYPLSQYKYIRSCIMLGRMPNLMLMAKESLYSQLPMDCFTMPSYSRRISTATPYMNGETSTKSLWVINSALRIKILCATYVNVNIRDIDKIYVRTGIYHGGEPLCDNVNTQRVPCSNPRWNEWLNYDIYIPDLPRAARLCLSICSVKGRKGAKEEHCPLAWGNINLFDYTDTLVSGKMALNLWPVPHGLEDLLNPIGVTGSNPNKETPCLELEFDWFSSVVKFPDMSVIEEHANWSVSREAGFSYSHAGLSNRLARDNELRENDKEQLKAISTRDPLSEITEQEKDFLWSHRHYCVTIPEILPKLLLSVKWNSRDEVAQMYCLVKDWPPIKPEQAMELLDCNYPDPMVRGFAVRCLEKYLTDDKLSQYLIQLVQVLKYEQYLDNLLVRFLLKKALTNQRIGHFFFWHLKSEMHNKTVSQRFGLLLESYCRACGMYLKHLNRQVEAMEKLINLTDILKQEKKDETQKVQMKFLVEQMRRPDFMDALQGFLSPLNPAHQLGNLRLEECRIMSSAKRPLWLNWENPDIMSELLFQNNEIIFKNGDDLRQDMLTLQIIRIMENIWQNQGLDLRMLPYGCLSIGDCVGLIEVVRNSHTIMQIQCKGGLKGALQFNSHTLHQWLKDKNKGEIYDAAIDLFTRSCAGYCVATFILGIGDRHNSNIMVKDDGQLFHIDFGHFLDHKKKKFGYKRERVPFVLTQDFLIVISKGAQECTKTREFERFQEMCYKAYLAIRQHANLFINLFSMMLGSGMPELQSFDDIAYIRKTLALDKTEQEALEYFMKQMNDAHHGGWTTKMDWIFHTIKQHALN
T1 sequence (P27986 whole entry partner): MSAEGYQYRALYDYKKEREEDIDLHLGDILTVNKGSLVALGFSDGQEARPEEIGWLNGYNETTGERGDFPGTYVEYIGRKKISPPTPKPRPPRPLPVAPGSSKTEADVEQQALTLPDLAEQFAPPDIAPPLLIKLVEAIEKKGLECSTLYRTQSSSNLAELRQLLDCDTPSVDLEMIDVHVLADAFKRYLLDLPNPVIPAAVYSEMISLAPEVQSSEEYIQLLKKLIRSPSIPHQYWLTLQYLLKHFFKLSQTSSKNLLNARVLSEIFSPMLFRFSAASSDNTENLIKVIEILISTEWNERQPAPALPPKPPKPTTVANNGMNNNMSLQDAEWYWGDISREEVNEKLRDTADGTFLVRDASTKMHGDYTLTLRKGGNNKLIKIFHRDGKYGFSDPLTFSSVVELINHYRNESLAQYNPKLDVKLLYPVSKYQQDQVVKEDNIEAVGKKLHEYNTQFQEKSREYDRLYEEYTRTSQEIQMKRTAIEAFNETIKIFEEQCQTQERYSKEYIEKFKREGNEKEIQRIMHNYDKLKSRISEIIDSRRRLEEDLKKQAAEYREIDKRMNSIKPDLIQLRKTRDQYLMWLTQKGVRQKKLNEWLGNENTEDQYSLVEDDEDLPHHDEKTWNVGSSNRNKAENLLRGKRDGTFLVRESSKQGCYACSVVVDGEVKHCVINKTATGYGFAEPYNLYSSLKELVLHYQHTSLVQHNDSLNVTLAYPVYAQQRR
Description: The inhibitory activity of a compound of the invention against PI3K and/or BRD4 and/or SYK and/or CDK4/6 can be readily determined using methods known to the skilled artisan, or by commercial vendors offering such services. […] In vivo, PI3K inhibition can be determined from target tissue biopsies by standard tissue processing to disrupt cells and then performing Western Blot analysis to determine the presence or absence of pAKT (substrate of PI3K) relative to a control sample. The activity of a compound of the invention as an inhibitor of a bromodomain-containing protein, such as a BET protein, such as BRD2, BRD3, BRD4, and/or BRDT, or an isoform or mutant thereof, may be determined in vitro, in vivo, or in a cell line. In vitro assays include assays that determine inhibition of bromodomain-containing proteins. Alternatively, inhibitor binding may be determined by running a competition experiment where a provided compound is incubated with a bromodomain-containing protein, such as a BET protein bound to known ligands, labeled or unlabeled. For example, bromodomain inhibition can be determined in vitro using Alpha Screen Technology (http://www.reactionbiologv.com/webapps/site/NewsPDFs/Bromodomain%20Assay %20Platform %20for %20Drug %20Screening %20and %20Discovery.pdf). In vivo bromodomain inhibition can be determined indirectly by evaluating the amount of protein present of proteins whose genes' transcription is influenced or controlled by the bromodomain protein, for example, the MYCN protein transcription is controlled by BRD4 (J. E. Delmore et al., Cell 2011, 146, 904-917; A. Puissant, Cancer Discov. 2013, 3, 308-323). Bromodomain inhibition may also be predicted by in silico modeling as described below in the Examples. Additionally, the company Promega offers a SYK luminescent assay to determine a compound's ability to inhibit the SYK protein (https://www.promega.com/-/media/files/resources/protocols/kinase-enzyme-appnotes/syk-kinase-assay-protocol.pdf?la=en).
Compounds of the invention were characterized for their ability to inhibit target proteins using third party vendors offering such services. PI3K alpha, gamma, and delta inhibition activity was determined by Thermo Fisher Scientific-Biosciences Life Sciences Solutions, Madison, Wis. The bromodomain protein inhibition (binding domain 1 and 2 of BRD4) as well as SYK inhibition was determined at Reaction Biology Corp., Malvern, Pa. […] The IC50 data (shown below in Table 5) was calculated from a 10-point curve and is expressed in nanomolar concentration (nM) rounded off to the nearest whole number. […]

## Cc1nn(-c2ccnc(Nc3ccc(-c4csc5c(=O)cc(N6CCOCC6)oc45)cc3)n2)cc1CN1CCC1 [Compound 3, 3-[p-(4-{4-[(1-Azetidinyl)methyl]-3-methyl-1H-pyrazol-1-yl}-2-pyrimidinylamino)phenyl]-5-morpholino-4-oxa-1-thia-7-indenone]
MC38 tumors
  % Growth inhibition of MC38 tumor: 62 +/− 24%
[1]; 10 mg/kg in vivo, n=3, vehicle 0.8 ± 0.18
  Ifng mRNA expression in LLC tumors: 1.4 ± 0.27,
[1]; 10 mg/kg in vivo, n=3, vehicle 0.87 ± 0.27
  Gzmb mRNA expression in LLC tumors: 1.87 ± 0.5
[1]; 10 mg/kg, vs vehicle
  expression of Ifng and Gzmb in LLC tumors: increased expression of the inflammatory cytokines, Ifng and GzmB; also recorded: increased the expression of immunostimulatory T cell immune effectors
PI3K α
  IC50: 100 to 1000 nM
